Measurements taken from patent US20090306122A1, “SUBSTITUTED TETRAHYDROPYRROLOQUINOLINE DERIVATIVES AS KINASE MODULATORS, ESPECIALLY OF TYROSINE AND RAF KINASES” (priority 2005, published 2009).

Target: T1, IGF1-R kinase (Homo sapiens, UniProt P08069)
T1 construct: purchased ProQinase
Experiment: Assay for the determination of IGF1-R kinase inhibition (AlphaScreen)
Type: biochemical
Settings: ATP 1 μM, biotinylated poly Glu, Tyr 4:1
Excerpt: Assay for the Determination of IGF1-R Kinase Inhibition
Lit.: G. Warner et al., Current Medicinal Chemistry, 2004, 11, 721-730
Use is made of AlphaScreen technology [(Amplified Luminescent Proximity Homogenous Assay), PerkinElmer], which is based on the amplification of a signal generated on interaction of so-called donor and acceptor beads. The convergence of two molecules can be measured very sensitively via this system.
The AlphaScreen test is based on traditional kinase tests, with the exception that the kinase activity is detected non-radioactively.
The binding of molecules which have been captured on the beads results in energy transfer from one bead to the other, which ultimately results in a luminescence/fluorescence signal.
In the absence of IGF1-R kinase activity, no signal is detected.
The kinase phosphorylates the biotinylated polypeptide (poly Glu, Tyr, 4:1) on the tyrosine.
The phosphorylated biotinylated peptide binds to streptavidin donor beads (biotin-streptavidin binding). The anti-phospho-tyrosine P-Tyr-100 antibody bound to the acceptor beads binds to phospho-tyrosine via the antigen binding site, giving a complex of:
Donor bead-streptavidin <->biotin-phosphopeptide (P substrate)<->antiphospho antibody-acceptor bead
If light having a wavelength of 680 nm is incident, the donor beads produce singlet oxygen, which, on adequate spatial proximity of the acceptor beads (only on formation of complex), causes the latter to emit at 520/620 nm.
Test procedure: the test is carried out in a 384-well OptiPlate™-384 Art.: 6007290 from Perkin Elmer
IGF1-R, enzyme from “ProQinase” • IGF1-R, 20 μl • Final concentration: 0.5 ng of kinase/well • (in 50 mM MOPS assay buffer pH 7.0 (comprising 0.20 mM • EDTA; 5.0 mM MnCl2; 10 mM MgCl2; 0.002% of BriJ; 0.002% of 2-mercaptoethanol and 0.1% of BSA) • +Test substance or standard sample, 3.0 μl • are pipetted into MTP well, shaken briefly and pre-incubated.
Pre-incubation: 30 minutes at RT (with continuous gentle shaking)
ATP/biotinylated substrate mix, 10 μl is added • ATP adenosine 5′-triphosphate, disodium salt (Calbiochem)/biotinylated poly Glu, Tyr, 4:1 (from Perkin Elmer) • Final concentration of ATP: 1 μM • Final concentration of biotinylated poly Glu, Tyr, 4:1:1 nM • Shake briefly and incubate. • Incubation: 45 minutes at RT (with continuous gentle shaking) 3. • Beads, P-Tyr-100 acceptor beads; antiphosphotyrosine (P-Tyr-100) acceptor beads • and simultaneously Streptavidin donor beads, 20 μl, are pipetted into well in a darkened room and shaken briefly. • Final concentration: 5 μg/ml of beads • Acceptor/donor beads are prepared shortly in advance in AlphaScreen detection/stop buffer (25 mM HEPES buffer comprising 100 mM NaCl, 0.1% of BSA, 100 mM EDTA). • This is followed by • Incubation: 20 hours at RT in the dark • Measurement: on the fusion a screen in Alpha programme 1 sec.

T1 sequence (P08069 31-1367): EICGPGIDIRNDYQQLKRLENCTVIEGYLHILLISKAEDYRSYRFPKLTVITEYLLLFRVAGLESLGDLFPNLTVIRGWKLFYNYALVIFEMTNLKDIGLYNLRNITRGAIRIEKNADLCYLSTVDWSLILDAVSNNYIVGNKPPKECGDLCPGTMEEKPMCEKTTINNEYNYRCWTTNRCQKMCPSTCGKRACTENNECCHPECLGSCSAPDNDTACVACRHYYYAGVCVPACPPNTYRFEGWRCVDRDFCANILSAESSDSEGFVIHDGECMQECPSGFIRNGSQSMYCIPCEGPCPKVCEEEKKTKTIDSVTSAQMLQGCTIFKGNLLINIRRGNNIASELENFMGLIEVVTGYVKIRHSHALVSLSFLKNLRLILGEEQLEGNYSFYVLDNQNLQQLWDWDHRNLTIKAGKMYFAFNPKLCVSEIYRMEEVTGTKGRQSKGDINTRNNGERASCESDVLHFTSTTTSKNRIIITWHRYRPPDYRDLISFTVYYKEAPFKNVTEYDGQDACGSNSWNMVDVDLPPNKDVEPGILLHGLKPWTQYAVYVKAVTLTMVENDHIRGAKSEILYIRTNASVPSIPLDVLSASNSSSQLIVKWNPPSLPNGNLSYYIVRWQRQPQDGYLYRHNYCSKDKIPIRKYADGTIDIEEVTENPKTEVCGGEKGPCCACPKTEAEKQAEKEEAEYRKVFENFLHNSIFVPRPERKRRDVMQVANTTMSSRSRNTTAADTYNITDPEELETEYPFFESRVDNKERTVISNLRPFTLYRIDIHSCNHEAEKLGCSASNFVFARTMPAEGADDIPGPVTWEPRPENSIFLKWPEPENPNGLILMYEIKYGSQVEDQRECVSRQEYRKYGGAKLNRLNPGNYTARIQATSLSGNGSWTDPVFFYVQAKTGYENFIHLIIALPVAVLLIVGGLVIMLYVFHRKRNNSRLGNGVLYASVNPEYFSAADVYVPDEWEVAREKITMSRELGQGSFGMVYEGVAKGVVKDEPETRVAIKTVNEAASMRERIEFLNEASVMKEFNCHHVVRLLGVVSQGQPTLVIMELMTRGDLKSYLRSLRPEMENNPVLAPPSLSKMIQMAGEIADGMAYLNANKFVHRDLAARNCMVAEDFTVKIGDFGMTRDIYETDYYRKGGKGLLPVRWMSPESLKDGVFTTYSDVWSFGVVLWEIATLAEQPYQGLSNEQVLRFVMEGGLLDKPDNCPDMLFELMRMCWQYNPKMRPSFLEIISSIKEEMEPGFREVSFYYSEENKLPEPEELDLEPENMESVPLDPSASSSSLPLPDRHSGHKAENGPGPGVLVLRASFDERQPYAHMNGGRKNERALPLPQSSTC

Structure (SMILES) | IC50 [nM]
COc1cccc(C2CC(N3CCCC3=O)c3cc(F)cc4c3N2CC4)c1 (centres unmarked) [Compound 1, 6-(2-oxopyrrolidin-1-yl)-8-fluoro-4-(3-methoxyphenyl)-1,2,5,6-tetrahydro-4H-pyrrolo[3,2,1-ij]quinoline] | 29000
O=C1CCCN1C1CC(c2cccc(Cl)c2Cl)N2CCc3cccc1c32 (centres unmarked) [Compound 2] | 5000
O=C1CCCN1C1CC(c2cccc(Br)c2)N2CCc3cccc1c32 (centres unmarked) [Compound 3] | 1300
O=C1CCCN1C1CC(c2ccc(Cl)cc2F)N2CCc3cccc1c32 (centres unmarked) [Compound 4] | 1500
CCc1ccc(C2CC(N3CCCC3=O)c3cccc4c3N2CC4)cc1 (centres unmarked) [Compound 5] | 2200
O=C1CCCN1C1CC(c2cccc(Cl)c2)N2CCc3cccc1c32 (centres unmarked) [Compound 6] | 2900
O=C1CCCN1C1CC(c2cccc(C(F)(F)F)c2)N2CCc3cccc1c32 (centres unmarked) [Compound 7] | 4500
CC(C)(C)c1ccc(C2CC(N3CCCC3=O)c3cccc4c3N2CC4)cc1 (centres unmarked) [Compound 8] | 1600
CC(C)c1ccc(C2CC(N3CCCC3=O)c3cccc4c3N2CC4)cc1 (centres unmarked) [Compound 9] | 2000
Cc1cccc(C2CC(N3CCCC3=O)c3cccc4c3N2CC4)c1 (centres unmarked) [Compound 10] | 3600
CCCc1ccc(C2CC(N3CCCC3=O)c3cccc4c3N2CC4)cc1 (centres unmarked) [Compound 11] | 3500
O=C1CCCN1C1CC(c2ccccc2Br)N2CCc3cccc1c32 (centres unmarked) [Compound 12] | 2500
O=C1CCCN1C1CC(c2cc(C(F)(F)F)cc(C(F)(F)F)c2)N2CCc3cccc1c32 (centres unmarked) [Compound 13] | 5690
O=C1CCCN1C1CC(c2ccc(Cl)c([N+](=O)[O-])c2)N2CCc3cccc1c32 (centres unmarked) [Compound 14] | 6000
O=C1CCCN1C1CC(c2ccccc2F)N2CCc3cccc1c32 (centres unmarked) [Compound 15] | 1500
O=C1CCCN1C1CC(c2ccccc2Cl)N2CCc3cccc1c32 (centres unmarked) [Compound 16] | 3100
Cc1ccc(C2CC(N3CCCC3=O)c3cccc4c3N2CC4)cc1 (centres unmarked) [Compound 17] | 2600
O=C1CCCN1C1CC(c2ccc(Br)cc2F)N2CCc3cccc1c32 (centres unmarked) [Compound 18] | 2100
Cc1ccc(C2CC(N3CCCC3=O)c3cccc4c3N2CC4)cc1[N+](=O)[O-] (centres unmarked) [Compound 19] | 3300
O=C1CCCN1C1CC(c2cc(F)cc(C(F)(F)F)c2)N2CCc3cccc1c32 (centres unmarked) [Compound 20] | 10000
CC(C)(C)OC(=O)Oc1ccc(C2CC(N3CCCC3=O)c3cccc4c3N2CC4)cc1 (centres unmarked) [Compound 21] | 1800
O=C1CCCN1C1CC(c2ncc(C(F)(F)F)cc2Cl)N2CCc3cccc1c32 (centres unmarked) [Compound 22] | 1700

Structure (SMILES) | IC50 [nM]
O=C1CCCN1C1CC(c2ccc(Cl)cc2Cl)N2CCc3cccc1c32 (centres unmarked) [Compound 23] | 4000
O=C1CCCN1C1CC(c2cc(F)cc(F)c2)N2CCc3cccc1c32 (centres unmarked) [Compound 24] | 3300
COc1cccc(C2CC(N3CCCC3=O)c3cccc4c3N2CC4)c1OC (centres unmarked) [Compound 25] | 190
CCOc1ccccc1C1CC(N2CCCC2=O)c2cccc3c2N1CC3 (centres unmarked) [Compound 26] | 1400
COc1ccc(OC)c(C2CC(N3CCCC3=O)c3cccc4c3N2CC4)c1 (centres unmarked) [Compound 27] | 2100
COc1cccc(OC)c1C1CC(N2CCCC2=O)c2cccc3c2N1CC3 (centres unmarked) [Compound 28] | 2100
O=C1CCCN1C1CC(c2ccccc2OCc2ccccc2)N2CCc3cccc1c32 (centres unmarked) [Compound 29] | 1100
O=C1CCCN1C1CC(c2cccc(OCc3ccccc3)c2)N2CCc3cccc1c32 (centres unmarked) [Compound 30] | 2800
COc1cccc(C2CC(N3CCCC3=O)c3cccc4c3N2CC4)c1 (centres unmarked) [Compound 31] | 2000
COc1ccccc1C1CC(N2CCCC2=O)c2cccc3c2N1CC3 (centres unmarked) [Compound 32] | 6000
COc1ccc(Oc2cccc(C3CC(N4CCCC4=O)c4cccc5c4N3CC5)c2)cc1 (centres unmarked) [Compound 33] | 2100
O=C1CCCN1C1CC(c2cccc3c2OCO3)N2CCc3cccc1c32 (centres unmarked) [Compound 34] | 4800
CCOc1ccc(C2CC(N3CCCC3=O)c3cccc4c3N2CC4)c(OCC)c1C (centres unmarked) [Compound 35] | 3500
COc1cc(C2CC(N3CCCC3=O)c3cccc4c3N2CC4)ccc1OC(=O)OC(C)(C)C (centres unmarked) [Compound 36] | 930
O=C1CCCN1C1CC(c2ccc(-c3ccccc3[N+](=O)[O-])o2)N2CCc3cccc1c32 (centres unmarked) [Compound 37] | 260
COc1cccc(C2CC(N(C)C(C)=O)c3cccc4c3N2CC4)c1 (centres unmarked) [Compound 38] | 2100
O=C1CCCN1C1CC(c2cccc(OCc3ccccc3)c2)N2CCc3cc(F)cc1c32 (centres unmarked) [Compound 40] | 2700
O=C1CCCN1C1CC(c2ccccc2Cl)N2CCc3cc(F)cc1c32 (centres unmarked) [Compound 41] | 4500
O=C1CCCN1C1CC(c2cccc(-c3ccc(F)cc3)c2)N2CCc3cccc1c32 (centres unmarked) [Compound 42] | 5500
O=C1CCCN1C1CC(c2cccc(-c3ccc(C(F)(F)F)cc3)c2)N2CCc3cccc1c32 (centres unmarked) [Compound 43] | 7400
O=C1CCCN1C1CC(c2cccc(-c3cccc(OC(F)(F)F)c3)c2)N2CCc3cccc1c32 (centres unmarked) [Compound 44] | 21000
O=C(O)c1ccc(C2CC(N3CCCC3=O)c3cccc4c3N2CC4)cc1 (centres unmarked) [Compound 45] | 14000
